Test results: PubChem BioAssay (NCI)
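Briefly, cells in 96-well plates were exposed to five compound concentrations for 48 h, and endpoints were estimated by linear interpolation. TGI: concentration producing complete growth inhibition.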

Tests used:
Assay in all cases: NCI tumour cell line growth inhibition, 48 h
U251 CNS = test system: U251 CNS
SW-620 colon = test system: SW-620 colon
MOLT-4 leukemia = test system: MOLT-4 leukemia
A498 renal = test system: A498 renal
HS 578T breast = test system: HS 578T breast
T-47D breast = test system: T-47D breast
SF-268 CNS = test system: SF-268 CNS
NCI-H522 lung = test system: NCI-H522 lung
HCC-2998 colon = test system: HCC-2998 colon
MDA-MB-231 breast = test system: MDA-MB-231 breast
RPMI-8226 leukemia = test system: RPMI-8226 leukemia
HOP-92 NSCLC = test system: HOP-92 NSCLC
HCT-15 colon = test system: HCT-15 colon
HOP-62 NSCLC = test system: HOP-62 NSCLC
MCF7 breast = test system: MCF7 breast
OVCAR-3 ovarian = test system: OVCAR-3 ovarian
BT-549 breast = test system: BT-549 breast
EKVX NSCLC = test system: EKVX NSCLC
SN12C renal = test system: SN12C renal
SK-MEL-2 melanoma = test system: SK-MEL-2 melanoma
SF-539 CNS = test system: SF-539 CNS
UO-31 renal = test system: UO-31 renal
HL-60(TB) leukemia = test system: HL-60(TB) leukemia
CCRF-CEM leukemia = test system: CCRF-CEM leukemia
ACHN renal = test system: ACHN renal
COLO 205 colon = test system: COLO 205 colon
CAKI-1 renal = test system: CAKI-1 renal
SK-OV-3 ovarian = test system: SK-OV-3 ovarian
786-0 renal = test system: 786-0 renal
PC-3 prostate = test system: PC-3 prostate
UACC-62 melanoma = test system: UACC-62 melanoma
IGROV1 ovarian = test system: IGROV1 ovarian
SK-MEL-5 melanoma = test system: SK-MEL-5 melanoma
SK-MEL-28 melanoma = test system: SK-MEL-28 melanoma
SR leukemia = test system: SR leukemia
OVCAR-4 ovarian = test system: OVCAR-4 ovarian
A549 NSCLC = test system: A549 NSCLC
SF-295 CNS = test system: SF-295 CNS
M14 melanoma = test system: M14 melanoma
NCI-H460 lung = test system: NCI-H460 lung
OVCAR-5 ovarian = test system: OVCAR-5 ovarian
UACC-257 melanoma = test system: UACC-257 melanoma
HCT-116 colon = test system: HCT-116 colon
LOX IMVI melanoma = test system: LOX IMVI melanoma
DU-145 prostate = test system: DU-145 prostate
NCI-H23 lung = test system: NCI-H23 lung
MDA-N = test system: MDA-N
SNB-75 CNS = test system: SNB-75 CNS
TK-10 renal = test system: TK-10 renal
MDA-MB-435 = test system: MDA-MB-435
KM12 colon = test system: KM12 colon
K-562 leukemia = test system: K-562 leukemia
SNB-19 CNS = test system: SNB-19 CNS

C/C=C1\CN2CCC34c5ccccc5N(C)C35OCC4(C(=O)OC)C1CC25 (stereo not drawn)
TGI (U251 CNS): > 100 µM | TGI (SW-620 colon): > 100 µM | TGI (MOLT-4 leukemia): > 100 µM | TGI (A498 renal): > 100 µM | TGI (HS 578T breast): > 100 µM | TGI (T-47D breast): 75.7 µM | TGI (SF-268 CNS): > 100 µM | TGI (NCI-H522 lung): > 100 µM | TGI (HCC-2998 colon): 29.1 µM | TGI (MDA-MB-231 breast): > 100 µM | TGI (RPMI-8226 leukemia): > 100 µM | TGI (HOP-92 NSCLC): > 100 µM | TGI (HCT-15 colon): > 100 µM | TGI (HOP-62 NSCLC): > 100 µM | TGI (MCF7 breast): > 100 µM | TGI (OVCAR-3 ovarian): > 100 µM | TGI (BT-549 breast): > 100 µM | TGI (EKVX NSCLC): > 100 µM | TGI (SN12C renal): > 100 µM | TGI (SK-MEL-2 melanoma): > 100 µM | TGI (SF-539 CNS): > 100 µM | TGI (UO-31 renal): > 100 µM | TGI (HL-60(TB) leukemia): 78.3 µM | TGI (CCRF-CEM leukemia): > 100 µM | TGI (ACHN renal): > 100 µM | TGI (COLO 205 colon): 31.5 µM | TGI (CAKI-1 renal): > 100 µM | TGI (SK-OV-3 ovarian): > 100 µM | TGI (786-0 renal): > 100 µM | TGI (PC-3 prostate): > 100 µM | TGI (UACC-62 melanoma): > 100 µM | TGI (IGROV1 ovarian): > 100 µM | TGI (SK-MEL-5 melanoma): 33.5 µM | TGI (SK-MEL-28 melanoma): > 100 µM | TGI (SR leukemia): > 100 µM | TGI (OVCAR-4 ovarian): > 100 µM | TGI (A549 NSCLC): > 100 µM | TGI (SF-295 CNS): > 100 µM | TGI (M14 melanoma): 45.4 µM | TGI (NCI-H460 lung): 64.8 µM | TGI (OVCAR-5 ovarian): > 100 µM | TGI (UACC-257 melanoma): > 100 µM | TGI (HCT-116 colon): > 100 µM | TGI (LOX IMVI melanoma): 58.3 µM | TGI (DU-145 prostate): > 100 µM | TGI (NCI-H23 lung): > 100 µM | TGI (MDA-N): > 100 µM | TGI (SNB-75 CNS): > 100 µM | TGI (TK-10 renal): > 100 µM | TGI (MDA-MB-435): > 100 µM | TGI (KM12 colon): > 100 µM | TGI (K-562 leukemia): > 100 µM | TGI (SNB-19 CNS): > 100 µM
